Data published in the supplement of paper PMC8671470.

Columns and labels:
Conditions in all cases: 72 h
SHI-1 [1] = test: cell viability (% survival relative to DMSO control, bortezomib = 0%); higher = less cytotoxic
In short: (§1)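 Fifteen myeloid leukaemia cell lines (10 AML, 5 CML) were seeded at a density titrated to the linear growth range into 384-well plates pre-printed with compounds at 1, 10, 100, 1000 or 10000 nM in duplicate. Plates were incubated for 72 h at 37 °C with 5% CO2. Viability was then read by CellTiter-Glo luminescence. Each value is percent survival averaged over the duplicates, with vehicle set to 100% and a 10 µM positive control to 0%.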

HEL [2] = test: as above
In short: as §1

KG-1 [3] = test: as above
In short: as §1

NOMO-1 [4] = test: as above
In short: as §1

KU-812 [5] = test: as above
In short: as §1

K-562 [6] = test: as above
In short: as §1

Mono-Mac-6 [7] = test: as above
In short: as §1

THP-1 [8] = test: as above
In short: as §1

KCL-22 [9] = test: as above
In short: as §1

ML-2 [10] = test: as above
In short: as §1

HL-60 [11] = test: as above
In short: as §1

BV-173 [12] = test: as above
In short: as §1

LAMA-84 [13] = test: as above
In short: as §1

MOLM-13 [14] = test: as above
In short: as §1

MV4-11 [15] = test: as above
In short: as §1

SHI-1 [16] = tested on: SHI-1
In short: (§2)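 Seeded in RPMI 1640 at densities within the linear growth range, fifteen myeloid leukaemia cell lines were dispensed into 384-well plates with acoustically pre-printed compounds spanning five tenfold doses from 1 to 10,000 nM, in duplicate. The plates were kept for 72 h at 37 °C in 5% CO2 before luminescent ATP viability was measured and normalised to vehicle and to a positive control at 10 µM. Curves were fitted with a four-parameter log-logistic model. The IC50 was taken from those curves.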

HEL [17] = tested on: HEL
In short: as §2

KG-1 [18] = tested on: KG-1
In short: as §2

NOMO-1 [19] = tested on: NOMO-1
In short: as §2

KU-812 [20] = tested on: KU-812
In short: as §2

K-562 [21] = tested on: K-562
In short: as §2

Mono-Mac-6 [22] = tested on: Mono-Mac-6
In short: as §2

THP-1 [23] = tested on: THP-1
In short: as §2

KCL-22 [24] = tested on: KCL-22
In short: as §2

ML-2 [25] = tested on: ML-2
In short: as §2

HL-60 [26] = tested on: HL-60
In short: as §2

BV-173 [27] = tested on: BV-173
In short: as §2

LAMA-84 [28] = tested on: LAMA-84
In short: as §2

MOLM-13 [29] = tested on: MOLM-13
In short: as §2

MV4-11 [30] = tested on: MV4-11
In short: as §2

CC[C@H](C)[C@H](N)C(=O)N1CCSC1 [P32/98]
cell viability [%]
Conditions	1 nM	10 nM	100 nM	1000 nM	10000 nM
BV-173 [12]	96.2	95.3	96.7	115	84
HEL [2]	105	98.7	109	107	105
HL-60 [11]	88.1	103	108	98.6	76.7
K-562 [6]	101	98.6	96.6	101	100
KCL-22 [9]	96.8	97.3	107	98.2	100
KG-1 [3]	97.9	110	108	112	137
KU-812 [5]	97.7	92.3	92.6	103	97.9
LAMA-84 [13]	96.6	102	102	106	103
ML-2 [10]	102	102	102	103	91.2
MOLM-13 [14]	84.3	87.8	99.7	103	97.4
MV4-11 [15]	98.7	110	106	96.9	108
Mono-Mac-6 [7]	93.6	99	109	103	101
NOMO-1 [4]	102	102	99.6	102	92.9
SHI-1 [1]	111	99.9	103	97.1	88.5
THP-1 [8]	96.8	105	112	104	106

Conditions	IC50 (cell viability) [µM]
BV-173 [27]	> 10
HEL [17]	> 10
HL-60 [26]	> 10
K-562 [21]	> 10
KCL-22 [24]	> 10
KG-1 [18]	> 10
KU-812 [20]	> 10
LAMA-84 [28]	> 10
ML-2 [25]	> 10
MOLM-13 [29]	> 10
MV4-11 [30]	> 10
Mono-Mac-6 [22]	> 10
NOMO-1 [19]	> 10
SHI-1 [16]	> 10
THP-1 [23]	> 10

Cc1[nH]nc(C(F)(F)F)c1Cc1sc2c(c1C(=O)N1C[C@](C)(O)CO1)c(=O)n(C)c(=O)n2C(C)C [AZD3965]
cell viability [%]
Conditions	1 nM	10 nM	100 nM	1000 nM	10000 nM
BV-173 [12]	91.4	103	4.97	0.26	0.551
HEL [2]	84.2	108	116	111	109
HL-60 [11]	79.9	95.6	111	113	115
K-562 [6]	101	42	33.8	20	21.9
KCL-22 [9]	89.7	112	125	102	108
KG-1 [3]	114	118	124	132	127
KU-812 [5]	91.7	120	112	89.8	98.9
LAMA-84 [13]	89.5	120	113	95.1	102
ML-2 [10]	106	116	114	108	101
MOLM-13 [14]	113	120	120	105	93.5
MV4-11 [15]	89	106	138	94.7	81.6
Mono-Mac-6 [7]	108	105	111	84.9	98.3
NOMO-1 [4]	95.3	112	114	101	105
SHI-1 [1]	103	101	109	101	96.7
THP-1 [8]	107	104	113	99.5	102

Conditions	IC50 (cell viability) [µM]
BV-173 [27]	0.0362
HEL [17]	> 10
HL-60 [26]	> 10
K-562 [21]	0.00627
KCL-22 [24]	> 10
KG-1 [18]	> 10
KU-812 [20]	> 10
LAMA-84 [28]	> 10
ML-2 [25]	> 10
MOLM-13 [29]	> 10
MV4-11 [30]	> 10
Mono-Mac-6 [22]	> 10
NOMO-1 [19]	> 10
SHI-1 [16]	> 10
THP-1 [23]	> 10
